Data set [1] has as its system AMPA receptors. Put plainly: Inhibition of AMPA induced spreading depression in isolated chicken retina. The class given is cell-based. Particulars: AMPA (5 μM). As for the experimental part:
(§1) In the first model the spreading depression caused by glutamate agonists (i.e., AMPA or kainate) was studied, while in the second one the transmembrane ion-current induced by the activation of the AMPA/kainate receptors was measured directly.
Inhibition of AMPA Induced “Spreading Depression” in Isolated Chicken Retina—
The AMPA antagonistic effect of the compounds of formula (I) or (II) was studied in the in vitro “spreading depression” model (Sheardown Brain Res. 607:189 (1993)). The AMPA antagonists prolong the latency of the development of the “spreading depression” caused by AMPA (5 μM).

Data set [2] has as its system AMPA/kainate receptors. Nature of the data set: Inhibition of AMPA induced whole-cell current in acutely isolated cerebellar Purkinje cells (patch clamp). The class given is cell-based. Particulars: 5 μM AMPA, read-out: Inhibition of the ion-currents caused by 5 μM AMPA, IC50. As for the experimental part: as §1
The activity of the compounds of the present invention was studied on acutely isolated cerebellar Purkinje cells by measuring the whole-cell current induced by 5 μM AMPA according for example to the method described by Bleakman et al (Neuropharmacology 12:1689 (1996)).
A general note: The patch-clamp technique gives a direct electrical read-out from membranes.

Data set [3] has as its system CD1 mice. Put plainly: Anticonvulsant activity, maximal electroshock seizure (MES) test. The class given is in vivo. Particulars: Mus musculus, po. Here is the method: (§2) The anti-seizure activity of some of the compounds of the present invention was measured using the electroshock test (J. Pharmacol. Exp. Ther. 106:319 (1952)) and the results are shown in Table 3. The spasmolytic activity of the compounds of the present invention was investigated by using e.g., pentetrazole (J. Pharmacol. Exp. Ther. 108:168 (1953)), strychnine (J. Pharmacol. Exp. Ther. 129:75 (1960)), bemegrid, nicotine, bicuculline, 4-aminopyridine and mercapto-propionic acid for inducing the clonic-tonic seizures and lethality. The investigated compounds were administered orally in three doses using 10 male CD1 mice/dose, usually 60 min before the induction of seizures.
For orientation: The maximal electroshock test induces tonic seizures with an electrical stimulus.

The test system of data set [4] is CD1 mice. Nature of the data set: Anticonvulsant activity, pentetrazole induced seizures. It is filed as in vivo. Particulars: Mus musculus; po.; read-out: Pentetrazol ED50. Here is the method: as §2
Data set [5] relates to CD1 mice. Nature of the data set: Anticonvulsant activity, strychnine induced seizures. Particulars: Mus musculus; po.; read-out: Strychnine ED50. The class given is in vivo. As for the experimental part: as §2
Data set [6] relates to CD1 mice. Nature of the data set: Anticonvulsant activity, bemegride induced seizures. It is filed as in vivo. Particulars: Mus musculus; po.; read-out: Bemegride ED50. As for the experimental part: as §2
For data set [7], the system named is CD1 mice. Put plainly: Anticonvulsant activity, bicuculline induced seizures. It is filed as in vivo. Particulars: Mus musculus; po.; read-out: Bicuculline ED50. Here is the method: as §2
For data set [8], the system named is CD1 mice. Nature of the data set: Anticonvulsant activity, nicotine induced seizures. The class given is in vivo. Particulars: Mus musculus; po. Here is the method: as §2
For data set [9], the system named is CD1 mice. Put plainly: Anticonvulsant activity, 4-aminopyridine induced seizures. Particulars: Mus musculus; po.; read-out: 4-AP ED50. It is filed as in vivo. Here is the method: as §2
Data set [10] relates to CD1 mice. Put plainly: Anticonvulsant activity, 3-mercapto-propionic acid induced seizures. The class given is in vivo. Particulars: Mus musculus; po.; read-out: 3-MPA ED50. Here is the method: as §2
Data set [11] relates to CD1 mice. Nature of the data set: Muscle relaxant activity, inclined screen test. The class given is in vivo. Particulars: Mus musculus, ip.
Data set [12] deals with CD1 mice. Put plainly: Muscle relaxant activity, rotarod test. It is filed as in vivo. Particulars: Mus musculus, ip. For orientation: In the rotarod test animals must keep their balance on a rotating rod.
The subject of data set [13] is Lewis rats. Nature of the data set: Autoimmune encephalomyelitis model, neurological (clinical) symptoms. It is filed as in vivo. Particulars: Rattus norvegicus, po, 7.5 mg/kg p.o., female rats, read-out: Neurological symptoms (change compared to controls, %). As for the experimental part:
The compounds were administered intraperitoneally twice a day for 8 days, starting on day 10 after immunization and with an observation period until symptoms were present. 5-15 animals were used in each group. Their weights were 160-180 g (Lewis rats, female) and 180-220 g (Lewis rats, male). The activity of the compounds was determined according to the symptom score values, and compared to those of the control group (see Table 6). Histopathological investigations were carried out on the brain stem, the spinal cord, and the sciatic nerve (Gijbels et al., J. Clin. Invest. 94:2177 (1994)) using 5-10 animal/group.
Compounds of the invention were further investigated in the autoimmune encephalomyelitis model in rats as outlined in this description before, with the variance that 10 animals were used in each group, of weights 140-160 g (Lewis rats, female).

In data set [14] the test system is CD1 mice. Put plainly: Anti-tremor effect, oxotremorine induced tremor. The class given is in vivo. Particulars: Mus musculus; po., Litchfield-Wilcoxon, limits in brackets; read-out: ED50, tremor induced by Oxotremorin 1 mg/kg ip.
Data set [15] relates to CD1 mice. Put plainly: Anti-tremor effect, GYKI 20039 induced tremor. The class given is in vivo. Particulars: Mus musculus; po., Litchfield-Wilcoxon, limits in brackets; read-out: ED50, tremor induced by GYKI 20039 10 mg/kg ip.
Data set [16] deals with Lewis rats. Put plainly: Autoimmune encephalomyelitis model, neurological (clinical) symptoms. It is filed as in vivo. Particulars: Rattus norvegicus, po, 3.75 mg/kg p.o., female rats, read-out: Neurological symptoms (change compared to controls, %).
Where [17] appears, read: 0.5 h, 30′, read-out: MES 30′ ED50.
Setting [18] is: 1 h, 60 min before induction, read-out: MES (MES 60′) ED50.

Like-named read-outs stand apart in the source and are kept apart here.

For the compound `COCc1nnc(N2N=C(c3ccc(N)c(C)c3)c3cc4c(cc3C[C@H]2C)OCO4)s1` [Example 168, (R)-5-(4-Amino-3-methylphenyl)-8-methyl-7-(5-methoxymethyl-1,3,4-thiadiazol-2-yl)-8,9-dihydro-7H-1,3-dioxolo-[4,5-h][2,3]benzodiazepine], the melting point – broadly, the temperature of the solid-liquid transition – was in the range of 171 to 172 °C. Further, in data set [1], the IC50 (as a rule, the midpoint of a concentration-inhibition curve) amounted to 82 nM. In addition, the IC50 in data set [2] stood at 11 nM. The ED50 in data set [3] (setting [17]) stood at 2.21 mg/kg. Moreover, in data set [3] (setting [18]), the ED50 came to 4.49 mg/kg. Also, the ED50 in data set [4] came out at 6.9 mg/kg. Also, the ED50 in [5] came out at 10 mg/kg. In addition, in data set [6], the ED50 was determined as 6.7 mg/kg. Besides, the ED50 in [7] worked out at 10.6 mg/kg. The compound further yielded an ED50 in data set [8] of 17.7 mg/kg. Besides, in data set [9], the ED50 stood at 4.6 mg/kg. Moreover, the ED50 in [10] amounted to 4.62 mg/kg. In data set [11], this compound displayed an ED50 of 3.58 mg/kg. In data set [12], this compound showed an ED50 of 0.8 mg/kg. In addition, in data set [13] (0-8 day), the change in vivo at 7.5 mg/kg is -55%. Further, the change in vivo at 7.5 mg/kg in data set [13] (0-14 day) was -56%. Besides, the ED50 in data set [14] amounted to 3.29 mg/kg. Also, in data set [15], the ED50 came out at 4.11 mg/kg. Also, the change in vivo at 3.75 mg/kg in [16] (0-8 day) was -16%. Moreover, the change in vivo at 3.75 mg/kg in data set [16] (0-14 day) is -23%.
In turn, `CCCc1nnc(N2N=C(c3ccc(N)c(C)c3)c3cc4c(cc3C[C@H]2C)OCO4)s1` [Example 166, (R)-5-(4-Amino-3-methylphenyl)-8-methyl-7-(5-propyl-1,3,4-thiadiazol-2-yl)-8,9-dihydro-7H-1,3-dioxolo[4,5-h][2,3]benzodiazepine] returned a melting point of 150 to 154 °C. In data set [1], half-maximal inhibition (IC50) required 201 nM. In [2], the half-maximal inhibitory concentration (IC50) was found to be 28 nM. Besides, in [3] (setting [17]), the ED50 worked out at 4.54 mg/kg. In addition, the ED50 in data set [3] (setting [18]) came out at 4.01 mg/kg. Also, the ED50 in data set [4] turned out to be 9.18 mg/kg. In addition, in [5], the ED50 is 7.29 mg/kg. Moreover, the ED50 in data set [6] amounted to 7.77 mg/kg. For the same compound, in data set [7], the ED50 came to 13.3 mg/kg. Besides, in data set [8], the ED50 stood at 21.8 mg/kg. Besides, the ED50 in data set [9] is 6.81 mg/kg. The ED50 in [10] came to 9.92 mg/kg. Besides, the ED50 in data set [11] came to 3.27 mg/kg. This compound registered an ED50 in [12] of 0.86 mg/kg. For the same compound, in [13] (0-8 day), the change in vivo at 7.5 mg/kg was -51%. Also, in data set [13] (0-14 day), the change in vivo at 7.5 mg/kg was -53%. For the same compound, in data set [14], the ED50 turned out to be 2.74 mg/kg. Besides, the ED50 in [15] is 4.54 mg/kg. For the same compound, in data set [16] (0-8 day), the change in vivo at 3.75 mg/kg is -6%. Moreover, the change in vivo at 3.75 mg/kg in data set [16] (0-14 day) is -9%.
On to `CCc1nnc(N2N=C(c3ccc(N)c(C)c3)c3cc4c(cc3C[C@H]2C)OCO4)s1` [Example 165, (R)-5-(4-Amino-3-methylphenyl)-7-(5-ethyl-1,3,4-thiadiazol-2-yl)-8-methyl-8,9-dihydro-7H-1,3-dioxolo-[4,5-h][2,3]benzodiazepine], for which the melting point lay in the range of 129 to 133 °C. Further, the IC50 in data set [1] was 113 nM. For the same compound, the IC50 in [2] turned out to be 24 nM. Besides, the ED50 in data set [3] (setting [17]) amounted to 2.39 mg/kg. For the same compound, the ED50 in [3] (setting [18]) was 3.99 mg/kg. Further, the ED50 in data set [4] was determined as 10.1 mg/kg. For the same compound, in data set [5], the ED50 amounted to 10.2 mg/kg. The ED50 in data set [6] was found to be 10 mg/kg. The ED50 in data set [7] was 5.79 mg/kg. Moreover, the ED50 in data set [8] turned out to be 18.6 mg/kg. In [9], the ED50 was 8.6 mg/kg. Further, the ED50 in data set [10] stood at 8.53 mg/kg. In addition, in data set [11], the ED50 is 2.94 mg/kg. Further, the ED50 in data set [12] is 0.91 mg/kg. For the same compound, in data set [14], the ED50 came to 4.63 mg/kg. Further, the ED50 in [15] was 5.34 mg/kg.
The compound `Cc1nnc(N2N=C(c3ccc(N)c(Cl)c3)c3cc4c(cc3C[C@H]2C)OCO4)s1` [Example 182, (R)-5-(4-Amino-3-chlorophenyl)-8-methyl-7-(5-methyl-1,3,4-thiadiazol-2-yl)-8,9-dihydro-7H-1,3-dioxolo-[4,5-h][2,3]benzodiazepine] returned a melting point of 98 to 100 °C. Besides, the IC50 in data set [1] was 20 nM. Further, the IC50 in data set [2] was 31 nM. Besides, in data set [3] (setting [17]), the ED50 amounted to 5.08 mg/kg. In addition, the ED50 in data set [3] (setting [18]) was 6.17 mg/kg. In [4], the ED50 was 8.37 mg/kg. The ED50 in data set [5] worked out at 5.9 mg/kg. The ED50 in [6] was found to be 7.94 mg/kg. For the same compound, the ED50 in data set [7] came out at 8.44 mg/kg. Moreover, the ED50 in data set [8] was 24.2 mg/kg. The ED50 in data set [9] came to 5.44 mg/kg. Moreover, the ED50 in data set [10] turned out to be 7.57 mg/kg. This compound displayed an ED50 in data set [11] of 5.84 mg/kg. The compound also came in with an ED50 in [12] of 2.61 mg/kg. Further, the ED50 in [14] stood at 2.66 mg/kg. Besides, the ED50 in data set [15] came to 3.64 mg/kg.
